From ChEMBL document CHEMBL1140974, “Synthesis and antimalarial activity of semicarbazone and thiosemicarbazone derivatives” (Eur J Med Chem, 2008)
Activity calls are given as the source filed them. The calls are words filed in the database; no cut-off is given here.

Experiments:
PBMC [1] = assay: Antiproliferative activity against PHA-stimulated human PBMC at 20 ug/mL after 72 hrs by MTT assay relative to control; assay type: cell-based
Plasmodium falciparum [2] = assay: Antimalarial activity against chloroquine-resistant Plasmodium falciparum W2 in human erythrocytes at 20 ug/mL by [3H]hypoxanthine uptake; assay type: functional
PBMC [3] = assay: Antiproliferative activity against PHA-stimulated human PBMC after 72 hrs by MTT assay; assay type: cell-based
Plasmodium falciparum [4] = assay: Antimalarial activity against chloroquine-resistant Plasmodium falciparum W2 in human erythrocytes by [3H]hypoxanthine uptake; assay type: functional, organism-based
Plasmodium berghei [5] = assay: Antiplasmodial activity after 5 days as reduced parasitaemia in Plasmodium berghei NK65 infected BALB/c mice (Mus musculus) at 5 mg/kg/day for 4 days; assay type: functional; set-up: scale not given: the % may be the effect or the level left
Plasmodium berghei [6] = assay: Antiplasmodial activity as reduced parasitaemia after 5 day sin Plasmodium berghei NK65 infected BALB/c mice (Mus musculus) at 10 mg/kg/day over 4 days; assay type: functional; set-up: scale not given: the % may be the effect or the level left
Plasmodium berghei [7] = assay: Antiplasmodial activity as reduced parasitaemia after 7 days in Plasmodium berghei NK65 infected BALB/c mice (Mus musculus) at 5 mg/kg/day over 4 days; assay type: functional; set-up: scale not given: the % may be the effect or the level left
Plasmodium berghei [8] = assay: Antiplasmodial activity as reduced parasitaemia after 5 days in Plasmodium berghei NK65 infected BALB/c mice (Mus musculus) at 20 mg/kg/day over 4 days; assay type: functional; set-up: scale not given: the % may be the effect or the level left
Plasmodium berghei [9] = assay: Antiplasmodial activity as reduced parasitaemia after 7 days in Plasmodium berghei NK65 infected BALB/c mice (Mus musculus) at 15 mg/kg/day over 4 days; assay type: functional; set-up: scale not given: the % may be the effect or the level left
Plasmodium berghei [10] = assay: Antiplasmodial activity as reduced parasitaemia after 7 days in Plasmodium berghei NK65 infected BALB/c mice (Mus musculus) at 20 mg/kg/day over 4 days; assay type: functional; set-up: scale not given: the % may be the effect or the level left
Plasmodium berghei [11] = assay: Antiplasmodial activity as reduced parasitaemia after 5 days in Plasmodium berghei NK65 infected BALB/c mice (Mus musculus) at 15 mg/kg/day over 4 days; assay type: functional; set-up: scale not given: the % may be the effect or the level left
Plasmodium berghei [12] = assay: Antiplasmodial activity as reduced parasitaemia after 7 days in Plasmodium berghei NK65 infected BALB/c mice (Mus musculus) at 10 mg/kg/day over 4 days; assay type: functional; set-up: scale not given: the % may be the effect or the level left

## CC1(C)C2CC=C(/C=N/NC(N)=O)C1C2 (stereo not drawn)
PBMC [1]
  Activity: 110%
Plasmodium falciparum [2]
  Activity: inactive

## COc1cc(/C=N/NC(N)=S)cc(OC)c1OC
PBMC [1]
  Activity: 78%
Plasmodium falciparum [2]
  Activity: inactive

## COc1ccc(/C=N/NC(N)=O)cc1
PBMC [1]
  Activity: 141%
Plasmodium falciparum [2]
  inhibition at 20 µg/mL: 38%

## COc1cc(/C=N/NC(N)=O)ccc1O
PBMC [1]
  Activity: 116%
Plasmodium falciparum [2]
  Activity: inactive

## CC(C)=CCC/C(C)=N\NC(N)=O
PBMC [1]
  Activity: 107%
Plasmodium falciparum [2]
  Activity: inactive

## COc1ccc(/C=N/NC(N)=S)cc1
PBMC [1]
  Activity: 90%
Plasmodium falciparum [2]
  Activity: inactive

## CC/C(=N/NC(N)=O)C(C)CC=C(C)C (stereo not drawn)
PBMC [1]
  Activity: 0%
Plasmodium falciparum [2]
  Activity: inactive

## CCN(CC)CCCC(C)Nc1ccnc2cc(Cl)ccc12 (stereo not drawn) [CHLOROQUINE]
PBMC [3]
  IC50: 5.1 µM

## COc1cc(/C=N/NC(N)=O)cc(OC)c1OC
PBMC [1]
  Activity: 107%
Plasmodium falciparum [2]
  Activity: inactive

## CCCC/C(CC)=N\NC(N)=O
PBMC [1]
  Activity: 89%
Plasmodium falciparum [2]
  Activity: inactive

## CC1(C)C2CC=C(/C=N/NC(N)=S)C1C2 (stereo not drawn)
Plasmodium falciparum [4]
  IC50: 7.2 µM
Plasmodium berghei [5]
  Activity: 0%
PBMC [1]
  Activity: 76%
Plasmodium berghei [6]
  Activity: 36%
PBMC [3]
  IC50: 73.5 µM
Plasmodium berghei [7]
  Activity: 8%
Plasmodium berghei [8]
  Activity: 77.5%
Plasmodium berghei [9]
  Activity: 94.5%
Plasmodium berghei [10]
  Activity: 61%
Plasmodium falciparum [2]
  inhibition at 20 µg/mL: 95%
Plasmodium berghei [11]
  Activity: 93%
Plasmodium berghei [12]
  Activity: 32%

## CC/C(=N/NC(N)=S)C(C)CC=C(C)C (stereo not drawn)
Plasmodium falciparum [4]
  IC50: 9.2 µM
PBMC [1]
  Activity: 60%
PBMC [3]
  IC50: 31.3 µM
Plasmodium falciparum [2]
  inhibition at 20 µg/mL: 99%

## COc1ccc(/C=N/NC(N)=O)cc1OC
PBMC [1]
  Activity: 80%
Plasmodium falciparum [2]
  inhibition at 20 µg/mL: 32%

## CN(C)c1ccc(/C=N/NC(N)=O)cc1
PBMC [1]
  Activity: 84%
Plasmodium falciparum [2]
  Activity: inactive

## CC(C)=CCC/C(C)=N\NC(N)=S
Plasmodium falciparum [4]
  IC50: 12.6 µM
PBMC [1]
  Activity: 98%
PBMC [3]
  IC50: 35.2 µM
Plasmodium falciparum [2]
  inhibition at 20 µg/mL: 100%
